Experimental data as given in patent US20220089575A1, “FARNESOID X RECEPTOR AGONISTS AND USES THEREOF” (Metacrine, Inc., priority 2017, published 2022).

These compounds were tested against T1, hFXR (Homo sapiens, UniProt Q96RI1) (assay: In Vitro FXR Assay (TK): TK-ECRE-luc reporter in transfected CV-1 cells). Conditions: 18 hrs, luminescence, maximum efficacy of <25% of the Fexarmine control classified as '+'.
T1 construct: expressed in transfected cells; host or cells: CV-1 cells
T1 sequence (Q96RI1 1-486): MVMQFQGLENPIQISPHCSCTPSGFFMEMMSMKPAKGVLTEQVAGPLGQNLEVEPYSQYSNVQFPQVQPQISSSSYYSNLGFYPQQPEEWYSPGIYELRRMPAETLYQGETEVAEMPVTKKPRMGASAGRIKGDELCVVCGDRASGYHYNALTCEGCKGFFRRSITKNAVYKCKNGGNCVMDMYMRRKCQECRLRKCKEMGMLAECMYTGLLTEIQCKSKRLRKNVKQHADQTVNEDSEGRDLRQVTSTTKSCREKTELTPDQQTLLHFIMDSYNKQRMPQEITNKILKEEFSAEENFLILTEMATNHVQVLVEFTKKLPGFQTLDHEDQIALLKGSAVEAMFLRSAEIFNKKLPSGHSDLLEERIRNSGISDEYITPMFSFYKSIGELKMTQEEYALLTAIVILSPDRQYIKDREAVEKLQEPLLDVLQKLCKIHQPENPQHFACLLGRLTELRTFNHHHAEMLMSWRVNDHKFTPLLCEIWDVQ
T1 sequence (P19793 1-462 partner): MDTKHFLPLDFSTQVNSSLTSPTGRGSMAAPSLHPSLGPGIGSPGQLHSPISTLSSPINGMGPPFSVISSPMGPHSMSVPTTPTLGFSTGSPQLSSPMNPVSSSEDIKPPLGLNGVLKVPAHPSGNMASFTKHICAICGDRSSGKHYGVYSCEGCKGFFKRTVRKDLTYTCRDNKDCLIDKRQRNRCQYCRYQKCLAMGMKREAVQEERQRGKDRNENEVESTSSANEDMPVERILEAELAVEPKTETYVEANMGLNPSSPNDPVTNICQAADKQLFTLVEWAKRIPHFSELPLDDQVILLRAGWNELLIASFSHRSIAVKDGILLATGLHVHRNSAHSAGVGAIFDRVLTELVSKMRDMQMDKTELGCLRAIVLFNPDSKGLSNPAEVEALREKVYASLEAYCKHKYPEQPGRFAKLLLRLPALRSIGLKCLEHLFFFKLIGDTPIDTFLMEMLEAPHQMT
Type: cell-based
How it was run: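 CV-1 cells transiently co-transfected with hFXR, hRXR, TK-ECRE-luc and pCMX-YFP plasmids in charcoal-stripped serum medium. Serially diluted compounds added, cells incubated 18 h at 37° C, then lysed and luminescence read.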

Row | SMILES | EC50
1 | COc1ccc([C@H]2CC[C@H](CN(c3cc(-c4coc(C5CC5)n4)ccn3)C(=O)[C@H]3CC[C@H](OC(=O)N4CC(OC(C)C)C4)CC3)CC2)nc1C [Compound 7.91, trans-4-((4-(2-Cyclopropyloxazol-4-yl)pyridine-2-yl)((trans-4-(5-methoxy-6-methylpyridin-2-yl)cyclohexyl)methyl)carbamoyl)cyclohexyl 3-isopropoxyazetidine-1-carboxylate] | ≤ 250 nM
2 | CNC(=O)O[C@H]1CC[C@H](C(=O)N(C[C@H]2CC[C@H](c3ccc(OC)c(C)c3)CC2)c2cc(-c3ccc(N(C)C)nc3)ccn2)CC1 [Compound 5.40, trans-4-((6-(Dimethylamino)-[3,4′-bipyridin]-2′-yl)((trans-4-(4-methoxy-3-methylphenyl)cyclohexyl)methyl)carbamoyl)cyclohexyl methylcarbamate] | ≤ 250 nM
3 | CNC(=O)O[C@H]1CC[C@H](C(=O)N(C[C@H]2CC[C@H](c3ccc(OC)c(C)n3)CC2)c2cccc(-c3coc(C4CC4)n3)c2)CC1 [Compound 5.32, trans-4-((3-(2-Cyclopropyloxazol-4-yl)phenyl)((trans-4-(5-methoxy-6-methylpyridin-2-yl)cyclohexyl)methyl)carbamoyl)cyclohexyl methylcarbamate] | ≤ 250 nM
4 | COC(=O)N[C@H]1CC[C@H](C(=O)N(C[C@H]2CC[C@H](c3ccc(OC)c(C)n3)CC2)c2cc(-c3coc(C4CC4)n3)ccn2)CC1 [Compound 26.21, Methyl (trans-4-((4-(2-cyclopropyloxazol-4-yl)pyridine-2-yl)((trans-4-(5-methoxy-6-methylpyridin-2-yl)cyclohexyl)methyl)carbamoyl)cyclohexyl)carbamate] | ≤ 250 nM
5 | COc1ccc([C@H]2CC[C@H](CN(c3cccc(-c4cnc(C5CC5)s4)c3)C(=O)[C@H]3CC[C@H](OC(=O)N4CC(O)C4)CC3)CC2)nc1C [Compound 7.11, trans-4-((3-(2-Cyclopropylthiazol-5-yl)phenyl)((trans-4-(5-methoxy-6-methylpyridin-2-yl)cyclohexyl)methyl)carbamoyl)cyclohexyl 3-hydroxyazetidine-1-carboxylate] | ≤ 250 nM
6 | CN(C)c1ccc([C@H]2CC[C@H](CN(c3cccc(-c4cnc(C5CC5)s4)c3)C(=O)[C@H]3CC[C@H](OC(=O)NCCO)CC3)CC2)cn1 [Compound 6.01, 4-((3-(2-Cyclopropylthiazol-5-yl)phenyl) ((trans-4-(6-(dimethylamino)pyridin-3-yl)cyclohexyl)methyl)carbamoyl) cyclohexyl (2-hydroxyethyl)trans-carbamate] | ≤ 250 nM
7 | CCCC(=O)N[C@H]1CC[C@H](C(=O)N(C[C@H]2CC[C@H](c3ccc(OC)c(C)c3)CC2)c2cccc(-c3cnc(C4CC4)s3)c2)CC1 [Compound 25.16, trans-4-Butyramido-N-(3-(2-cyclopropylthiazol-5-yl)phenyl)-N-((trans-4-(4-methoxy-3-methylphenyl)cyclohexyl)methyl) cyclo hexanecarboxamide] | ≤ 250 nM
8 | CNC(=O)O[C@H]1CC[C@H](C(=O)N(C[C@H]2CC[C@H](c3ccc(OC)c(C)c3)CC2)c2cccc(-c3cnc(N(C)C)nc3)c2)CC1 [Compound 5.38, trans-4-((3-(2-(Dimethylamino)pyrimidin-5-yl)phenyl)((trans-4-(4-methoxy-3-methylphenyl)cyclohexyl)methyl)carbamoyl)cyclohexyl methylcarbamate] | ≤ 250 nM
9 | CNC(=O)O[C@H]1CC[C@H](C(=O)N(C[C@H]2CC[C@H](c3cnc(OC)c(C)c3)CC2)c2cc(-c3coc(C4CC4)n3)ccn2)CC1 [Compound 5.50, trans-4-((4-(2-Cyclopropyloxazol-4-yl)pyridine-2-yl)((trans-4-(6-methoxy-5-methylpyridin-3-yl)cyclohexyl)methyl)carbamoyl)cyclohexyl methylcarbamate] | ≤ 250 nM
10 | COc1ccc([C@H]2CC[C@H](CN(c3cccc(-c4coc(C5CC5)n4)c3)C(=O)[C@H]3CC[C@H](OC(=O)NCCO)CC3)CC2)cc1C [Compound 6.46, trans-4-((3-(2-Cyclopropyloxazol-4-yl)phenyl)((trans-4-(4-methoxy-3-methylphenyl)cyclohexyl)methyl)carbamoyl)cyclohexyl (2-hydroxyethyl) carbamate] | ≤ 250 nM
11 | COc1ccc([C@H]2CC[C@H](CN(c3cc(-c4coc(C5CC5)n4)ccn3)C(=O)[C@H]3CC[C@H](NC(C)=O)CC3)CC2)cc1C [Compound 26.20, trans-4-Acetamido-N-(4-(2-cyclopropyloxazol-4-yl)pyridine-2-yl)-N-((trans-4-(4-methoxy-3-methylphenyl)cyclohexyl)methyl) cyclohexanecarboxamide] | ≤ 250 nM
12 | COc1ccc([C@H]2CC[C@H](CN(c3cccc(-c4cnc(C5CC5)s4)c3)C(=O)[C@H]3CC[C@H](NC(=O)CN(C)C)CC3)CC2)cc1C [Compound 31.06, trans-N-(3-(2-Cyclopropylthiazol-5-yl)phenyl)-4-(2-(dimethylamino)acetamido)-N-((trans-4-(4-methoxy-3-methylphenyl)cyclohexyl)methyl)cyclohexanecarboxamide] | ≤ 250 nM
13 | CNC(=O)O[C@H]1CC[C@H](C(=O)N(C[C@H]2CC[C@H](c3cnc(OC)c(Cl)c3)CC2)c2cccc(-c3cnn(C4CC4)c3)c2)CC1 [Compound 5.11, trans-4-(((trans-4-(5-Chloro-6-methoxypyridin-3-yl)cyclohexyl)methyl)(3-(1-cyclopropyl-1H-pyrazol-4-yl)phenyl)carbamoyl)cyclohexyl methylcarbamate] | ≤ 250 nM
14 | COC(=O)N[C@H]1CC[C@H](C(=O)N(C[C@H]2CC[C@H](c3ccc(OC)c(C)c3)CC2)c2cccc(-c3cnn(C4CC4)c3)c2)CC1 [Compound 26, Methyl (trans-4-((3-(1-cyclopropyl-1H-pyrazol-4-yl)phenyl)((trans-4-(4-methoxy-3-methylphenyl)cyclohexyl)methyl)carbamoyl)cyclohexyl)carbamate] | ≤ 250 nM
15 | COc1ccc([C@H]2CC[C@H](CN(c3cccc(-c4cnn(C5CC5)c4)c3)C(=O)[C@H]3CC[C@H](OC(=O)N4CC(OC)C4)CC3)CC2)cc1C [Compound 4.06, trans-4-((3-(1-Cyclopropyl-1H-pyrazol-4-yl)phenyl)((trans-4-(4-methoxy-3-methylphenyl)cyclohexyl)methyl)carbamoyl)cyclohexyl 3-methoxyazetidine-1-carboxylate] | ≤ 250 nM
16 | COc1ccc([C@H]2CC[C@H](CN(c3cccc(-c4coc(C5CC5)n4)c3)C(=O)[C@H]3CC[C@H](C(=O)O)CC3)CC2)nc1C [Compound 18.01, trans-4-((3-(2-Cyclopropyloxazol-4-yl)phenyl)((trans-4-(5-methoxy-6-methylpyridin-2-yl)cyclohexyl)methyl)carbamoyl) cyclohexanecarboxylic acid] | ≤ 250 nM
17 | COc1ccc([C@H]2CC[C@H](CN(c3cccc(-c4coc(C5CC5)n4)c3)C(=O)[C@H]3CC[C@H](OC(=O)NCCCO)CC3)CC2)nc1C [Compound 6.51, trans-4-((3-(2-Cyclopropyloxazol-4-yl)phenyl)((trans-4-(5-methoxy-6-methylpyridin-2-yl)cyclohexyl)methyl)carbamoyl)cyclohexyl (3-hydroxypropyl)carbamate] | ≤ 250 nM
